From patent US7335723B2, “Melanin-concentrating hormone antagonists” (priority 2001, dated 2008) come the findings set out here.

Molecules are shown by their SMILES. Where a SMILES comes first, the peptide text is derived from it. Bridges are numbered along the chain shown (N, C = ends). [ ]: non-standard residue; d: D form. The star is where a group is joined. Pentanoyl(5-guanidino) = NC(N)=NCCCCC(=O)*; Nle = CCCC[C@H](N)C(=O)O; Ava = NCCCCC(=O)O

Test [1] addresses T1, human MCH-2R (Homo sapiens, UniProt Q969V1). The experiment in a line: Aequorin bioluminescence functional assay, MCH-2R agonist activity. The note with it: for MCH-2R Agonist Activation %: 293-AEQ17 cells expressing human MCH-2R.
The next test concerns the target human MCH-1R (Homo sapiens, UniProt Q99705). The experiment in a line: MCH-1R binding assay, inhibition of [125I]-human MCH binding to membranes.
In test [2] the target is T2, rat MCH-1R (Rattus norvegicus, UniProt P97639). Kind of test: Aequorin bioluminescence functional assay, MCH-1R agonist activity. The note with it: for MCH-1R Agonist Activation %: 293-AEQ17 cells expressing rat MCH-1R.
T2 sequence (P97639 whole entry): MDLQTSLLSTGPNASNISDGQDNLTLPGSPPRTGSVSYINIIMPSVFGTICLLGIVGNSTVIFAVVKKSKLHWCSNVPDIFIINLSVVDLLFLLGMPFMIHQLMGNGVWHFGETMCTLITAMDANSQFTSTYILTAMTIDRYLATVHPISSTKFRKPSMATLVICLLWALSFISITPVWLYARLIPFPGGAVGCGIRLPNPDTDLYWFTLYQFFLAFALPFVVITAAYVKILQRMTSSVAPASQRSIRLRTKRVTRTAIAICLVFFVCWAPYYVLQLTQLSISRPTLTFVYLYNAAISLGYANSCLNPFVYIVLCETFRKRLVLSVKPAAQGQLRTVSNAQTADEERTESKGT
Test [3] addresses T1, human MCH-2R. Kind of test: MCH-2R binding assay, inhibition of [125I]-human MCH binding to membranes. On the set-up: expressed in transfected cells; host or cells: 293-AEQ17 (aequorin-expressing HEK-293 reporter line). The note with it: inhibition of [125I]-human MCH (Phe13, Tyr19) binding, cell membranes.
Procedure: (§1) Cell membranes were prepared on ice. Each T-75 flask was rinsed twice with 10 ml of Enzyme-free Cell Dissociation Buffer (Specialty Media, Lavallette, N.J.), and the cell monolayer was detached in an additional 10 ml of Enzyme-free Cell Dissociation Buffer by incubation at room temperature for 10 minutes. Dissociated cells were centrifuged (500×g for 10 minutes at 4° C.), resuspended in 5 ml homogenization buffer (10 mM Tris-HCl, pH 7.4, 0.01 mM Pefabloc, 10 μM phosphoramidon, 40 μg/ml bacitracin) and then homogenized using a glass homogenizer (10-15 strokes). The homogenate was centrifuged for 10 minutes (1,000×g at 4° C.). The resulting supernatant was then centrifuged at 38,700×g for 15 minutes at 4° C. Pelleted membranes were resuspended (passed through 25 gauge needle 5 times), snap-frozen on liquid nitrogen, and stored at −80° C. until use.
Bound radioligand was separated by rapid vacuum filtration (Packard Filtermate 96-well cell harvester) through GF/C filters pretreated for 1 hour with 1% polyethylenimine. After application of the membrane suspension to the filter, the filters were washed 3 times with 3 ml each of ice-cold 50 mM Tris-HCl, pH 7.4, 10 mM MgCl2, 2 mM EDTA, 0.04% Tween 20 and the bound radioactivity on the filters was quantitated by scintillation counting (TopCount device). […]
Test [4] deals with T2, rat MCH-1R. Kind of test: Antagonist assay, 293-AEQ17 cells expressing rat MCH-1R. On the set-up: expressed in transfected cells; host or cells: 293-AEQ17 (aequorin-expressing HEK-293 reporter line). It is filed as cell-based. As to the method: Cells were grown in DMEM (high glucose) supplemented with 10% FBS (Hyclone), 500 μg/ml G418, 200 μg/ml hygromycin and 25 mM HEPES in T75 flasks.
The assay itself involved charging apoaequorin with coelenterazine cp(Molecular Probes, C-14260) and was performed as follows:
1. Confluent T75 flasks are rinsed 1× with 12 ml Hams F12 medium+300 μM glutathione+0.1% FBS.
2. The cells were charged by adding 8 ml Hams F12+0.1% FBS+300 μM glutathione+10 μM coelenterazine, incubate at 37° C. for 1 hour.
4. ECB (6 ml) is added to the flask and the cells are dissociated with a rubber-tipped scraper, centrifuged for 5 minutes at 2500 rpm and the cell pellet resuspended in 5 ml ECB. The cells are counted and diluted to 5×10^5/ml.
Binding and agonist activity at the MCH-1R and MCH-2R was determined as described in Examples 2 and 3. Antagonist IC50 was determined as described in Example 4. Kb was determined using the procedures described in Trends in Pharmacol. Sci. 14:237-239, 1993.

human MCH-1R, sequence (Q99705 whole entry): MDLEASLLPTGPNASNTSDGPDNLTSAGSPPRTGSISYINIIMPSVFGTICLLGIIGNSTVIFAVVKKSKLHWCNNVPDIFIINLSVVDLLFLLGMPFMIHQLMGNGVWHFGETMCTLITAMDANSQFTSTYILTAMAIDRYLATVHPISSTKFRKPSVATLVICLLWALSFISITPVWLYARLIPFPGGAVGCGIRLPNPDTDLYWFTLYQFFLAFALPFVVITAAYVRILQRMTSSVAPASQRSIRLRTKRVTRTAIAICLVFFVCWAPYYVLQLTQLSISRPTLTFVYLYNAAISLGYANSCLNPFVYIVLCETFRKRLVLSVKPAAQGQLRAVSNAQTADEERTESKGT
T1 sequence (Q969V1 whole entry): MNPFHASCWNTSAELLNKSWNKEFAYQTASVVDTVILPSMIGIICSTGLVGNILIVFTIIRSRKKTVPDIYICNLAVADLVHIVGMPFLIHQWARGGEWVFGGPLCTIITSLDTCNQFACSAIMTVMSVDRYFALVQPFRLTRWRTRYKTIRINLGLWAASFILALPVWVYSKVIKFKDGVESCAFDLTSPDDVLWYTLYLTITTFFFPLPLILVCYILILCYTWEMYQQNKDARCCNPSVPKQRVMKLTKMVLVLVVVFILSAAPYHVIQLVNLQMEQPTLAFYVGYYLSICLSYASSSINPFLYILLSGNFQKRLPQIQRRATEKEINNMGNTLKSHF
Procedure for human MCH-1R: as §1
Bound radioligand was separated by rapid vacuum filtration (Packard Filtermate 96-well cell harvester) through GF/C filters pretreated for 1 hour with 1% polyethylenimine. After application of the membrane suspension to the filter, the filters were washed 3 times with 3 ml each of ice-cold 50 mM Tris-HCl, pH 7.4, 10 mM MgCl2, 2 mM EDTA, 0.04% Tween 20 and the bound radioactivity on the filters was quantitated by scintillation counting (TopCount device).
For the SPA-based assay, WGA-PVT beads (NEN Life Sciences Products) were resuspended in Dulbecco's PBS with calcium and magnesium (500 mg beads in 4 ml PBS). […] The suspension was mixed gently for 20 minutes, 12.3 ml of assay buffer and protease inhibitors were added (final concentration given): 2 μg/ml leupeptin, 10 μM phosphoramidon, 40 μg/ml bacitracin, 5 μg/ml aprotinin, 0.1 mM Pefabloc.
Coated beads were kept on ice until use.

Usually EC50 stands for the concentration needed to bring the measured effect to its halfway point. A word on the IC50: it is the midpoint of a concentration-inhibition curve. Lower therefore signals greater potency. Consider `CSCC[C@@H]1NC(=O)[C@@H](NC(=O)CCCNC(=N)N)CSSC[C@@H](C(N)=O)NC(=O)CCCCNC(=O)CCCCNC(=O)[C@H](Cc2ccc(O)cc2)NC(=O)[C@H](C(C)C)NC(=O)[C@H](CCCNC(=N)N)NC(=O)CNC(=O)[C@H](CC(C)C)NC1=O` [SEQ. ID. NO. 12], for which, at human MCH-2R [1], the EC50 is over 10000 nM and the “MCH-2R Agonist Activation %” value stood at 14%. This molecule also had an IC50 at human MCH-1R of 8 nM. Also, at rat MCH-1R [2], the EC50 is over 10000 nM and the “MCH-1R Agonist Activation %” value worked out at 6%. This molecule registered an IC50 on human MCH-2R [3] of 4000 nM.

Take `CSCC[C@@H]1NC(=O)[C@@H](NC(=O)[C@H](CCCNC(=N)N)NC(C)=O)CSSC[C@@H](C(N)=O)NC(=O)[C@@H]2CCCN2C(=O)[C@H](CCCNC(=N)N)NC(=O)[C@H](Cc2ccc(O)cc2)NC(=O)[C@H](C(C)C)NC(=O)[C@H](CCCNC(=N)N)NC(=O)CCCCNC(=O)CCCCNC1=O` [SEQ. ID. NO. 3] (Ac-RCM[Ava][Ava]RVYRPC-NH2; disulfide 2-11; C-terminus assumed): the EC50 at human MCH-2R [1] is over 10000 nM; at rat MCH-1R [2], 587 nM. Besides, the IC50 at human MCH-1R came to 3.7 nM; on human MCH-2R [3], 350 nM. For the same molecule, the “MCH-1R Agonist Activation %” value on rat MCH-1R [2] was determined as 82%.

The term Kb denotes the equilibrium dissociation constant of an antagonist, usually derived from a functional assay. Lower therefore signals a more potent antagonist. In the case of `CCCC[C@@H]1NC(=O)[C@@H](NC(=O)CCCCNC(=N)N)CSSC[C@@H](C(N)=O)NC(=O)CCCCNC(=O)CCCCNC(=O)[C@H](Cc2ccc(O)cc2)NC(=O)[C@H](C(C)C)NC(=O)[C@H](CCCNC(=N)N)NC(=O)CNC(=O)[C@H](CC(C)C)NC1=O` [SEQ. ID. NO. 16] ({Pentanoyl(5-guanidino)}-C[Nle]LGRVY[Ava][Ava]C-NH2; disulfide 1-10; C-terminus assumed), the EC50 at human MCH-2R [1] and on rat MCH-1R [2] was over 10000 nM throughout. Moreover, the “MCH-2R Agonist Activation %” value on human MCH-2R [1] is 59%. Moreover, the 50% inhibitory concentration (IC50) at rat MCH-1R [4] is 13.8 nM; on human MCH-1R, 11 nM. The molecule further gave a Kb on rat MCH-1R [4] (determined per Trends in Pharmacol. Sci. 14:237-239, 1993) of 6 nM. In addition, at rat MCH-1R [2], the “MCH-1R Agonist Activation %” value amounted to 3%.
